Values quoted from earlier work in US9034798B2, “Capture compounds, collections thereof and methods for analyzing the proteome and complex compositions” (CAPROTEC BIOANALYTICS GMBH, priority 2003, dated 2015).

Conditions: for drug-induced hepatotoxicity: clinical studies; for heart failure: six male patients with poor heart and kidney function; for deaths: reported before withdrawal from the market

Row | heart failure | Structure (SMILES) | drug-induced hepatotoxicity | deaths
1 | caused heart failure | CCc1ccc(CCOc2ccc(CC3SC(=O)NC3=O)cc2)nc1 (stereo not drawn) [Actos, Pioglitazone] | no evidence of drug-induced hepatotoxicity | –
2 | caused heart failure | CN(CCOc1ccc(CC2SC(=O)NC2=O)cc1)c1ccccn1 (stereo not drawn) [Avandia, Rosiglitazone] | no evidence of drug-induced hepatotoxicity | –
3 | – | COCc1c(C(C)C)nc(C(C)C)c(/C=C/[C@@H](O)C[C@@H](O)CC(=O)O)c1-c1ccc(F)cc1 [Baycol, cerivastatin sodium] | – | 31 deaths
4 | – | Cc1c(C)c2c(c(C)c1O)CCC(C)(COc1ccc(CC3SC(=O)NC3=O)cc1)O2 (stereo not drawn) [Rezulin, Troglitazone] | – | 398 deaths
